Values joined by “and” are separate entries in the source; they are usually repeats but may differ in a detail not shown here. Identical values can stand only once.
Key:
RIF-1 fibrosarcoma = test: In vivo PDT of RIF-1 fibrosarcoma; parameters: key to Summary (cures), symbol: −: no response
Experimental: Photodynamic therapy parameters: Mice with tumors measuring 5-7 mm in diameter were entered into PDT experiments. Three Pd-BPheid drug doses (1, 5 and 10 mg/kg) and two light doses (100 and 300 Joules/sq.cm) were evaluated. A formulation of Pd-BPheid dissolved in Cremophor was administered by i.v. tail injection. PDT light exposure was started either 15 minutes, 1 hour or 4 hours following injection. […] A titanium sapphire laser tuned to 757 nm was used as the light source for PDT. Laser generated light was coupled into quartz fibers for delivery of light to tumors. A light power density of 75 mW/sq.cm was used. Tumor size was measured 3 days per week following PDT treatments and the percentage of tumor cures (defined as no tumor recurrence for 40 days post treatment) was determined.
In vivo PDT Response: Tables 4 and 5 hereinafter provide summaries of the PDT treatment results for C3H mice transplanted with either the BA mammary carcinoma or the RIF-1 fibrosarcoma. Each table indicates the following parameters: 1) intravenous drug dose expressed in mg/kg; 2) laser treatment parameters, including the total light dose (J/cm^2), the wavelength (757 nm), the light dose rate (mW/cm^2), and the time interval ([…], 4) toxicity (four mice died shortly after treatment), 5) tumor regrowth (consisting of the number of days between PDT treatment and tumor recurrence) and 6) the number of mice (and percentage) with Pd-BPheid PDT induced tumor cures.

[1] = test system: M2R mouse melanoma tumors; test: In vivo PDT of M2R melanoma tumors; parameters: species or system CD1 nude mice; conditions: 2.5 mg/Kg i.v., illuminated 30 min at 300 mW cm^−2; within 24 h
Experimental: (iv) Tumor implantation: Mice were implanted with 10^6 M2R cells on the back and tumors arose to the treatment size (7-8 mm) within 2-3 weeks.
(v) Light source: Osram 150 W halogen photo-optic lamp 64643 (D. K. Keller et al 1999, Int. J. Hyperthermia 15, 467-474) equipped with λ=650-900 mn spectral window, 300 mW/cm^−2. Illumination was for 30 min.
(vi) PDT protocol: The anesthetized mouse was i.v injected with the pigment and the tumor immediately illuminated. At the end of treatment the mouse was placed back in the cage. Photographs of the tumor were taken before and at the times indicated.
Preparation of sensitizer: Two mg Pd-BPheid were dissolved in 0.25 ml cremophor EL followed by 20 min sonication. 0.075 ml 1,2-propylene glycol were added and sonication was continued for another 15 min. Then 0.9 ml of […] were added followed by 5 min sonication. The sample was centrifuged for 12 min at 13,000 rpm (Eppendorf). The final calculated concentration of Pd-BPheid based on spectrum in chloroform was 0.5 mg/ml. […]
Preparation of sensitizer: Two mg Pd-BPheid were dissolved in 0.1 ml methanol, 0.1 ml 0.1M KH2PO4, pH=8.0 and 0.9 ml PBS and sonicated for 10 min. […] The sample was centrifuged for 8 min on 13,000 rpm the final calculated concentration of Pd-BPheid based on spectrum in chloroform was 0.5 mg/ml. […]

[2] = 1 mg/Kg i.v., 300 J/cm^2, 757 nm, 75 mW/cm^2, 15 min. interval
[3] = 5 mg/Kg i.v., 300 J/cm^2, 757 nm, 75 mW/cm^2, 1 HR. interval
[4] = 5 mg/Kg i.v., 300 J/cm^2, 757 nm, 75 mW/cm^2, 15 min. interval
[5] = 10 mg/Kg i.v., 100 J/cm^2, 757 nm, 75 mW/cm^2, 1 HR interval
[6] = 10 mg/Kg i.v., 100 J/cm^2, 757 nm, 75 mW/cm^2, 15 min. interval
[7] = 10 mg/Kg i.v., 300 J/cm^2, 757 nm, 75 mW/cm^2, 1 HR interval
[8] = 10 mg/Kg i.v., 300 J/cm^2, 757 nm, 75 mW/cm^2, 4 HR interval
[9] = 10 mg/Kg i.v., 300 J/cm^2, 757 nm, 75 mW/cm^2, 15 min. interval

What does the source list for CC[C@H]1C2=NC(=Cc3c(C(C)=O)c(C)c4[n]3[Pd][n]3c(c(C)c5c3=C(C3=NC(=C4)[C@@H](C)[C@@H]3CCC(=O)O)[C@@H](C(=O)OC)C5=O)=C2)[C@@H]1C [Pd-BPheid, Pd-bacteriopheophorbide a]?
Number of Animals with Primary Tumor Regrowth (Days to Recurrence) (RIF-1 fibrosarcoma; [2]): 2(1 day); Summary (cures), symbol (RIF-1 fibrosarcoma; [2]): −; Toxicity (Treatment associated death) (RIF-1 fibrosarcoma; [2]): 0; Number of Animals with Primary Tumor Regrowth (Days to Recurrence) (RIF-1 fibrosarcoma; [3]): 1(4 days) and 1(2 days) and 1(7 days); Toxicity (Treatment associated death) (RIF-1 fibrosarcoma; [3]): 0; Number of Animals with Primary Tumor Regrowth (Days to Recurrence) (RIF-1 fibrosarcoma; [4]): 1(5 days) and 1(12 days); Summary (cures) % (RIF-1 fibrosarcoma; [4]): 33.33%; Summary (cures), number of animals (days) (RIF-1 fibrosarcoma; [4]): 1(40 days); Toxicity (Treatment associated death) (RIF-1 fibrosarcoma; [4]): 0; Number of Animals with Primary Tumor Regrowth (Days to Recurrence) (RIF-1 fibrosarcoma; [5]): 2(3 days) and 1(6 days); Toxicity (Treatment associated death) (RIF-1 fibrosarcoma; [5]): 0; Number of Animals with Primary Tumor Regrowth (Days to Recurrence) (RIF-1 fibrosarcoma; [6]): 2(12 days) and 1(7 days); Toxicity (Treatment associated death) (RIF-1 fibrosarcoma; [6]): 0; Number of Animals with Primary Tumor Regrowth (Days to Recurrence) (RIF-1 fibrosarcoma; [7]): 1(20 days); Summary (cures) % (RIF-1 fibrosarcoma; [7]): 25.00%; Summary (cures), number of animals (days) (RIF-1 fibrosarcoma; [7]): 1(40 days); Toxicity (Treatment associated death) (RIF-1 fibrosarcoma; [7]): 2; Toxicity (Treatment associated death), number of animals (day) (RIF-1 fibrosarcoma; [7]): 2(1 day); Summary (cures), symbol (RIF-1 fibrosarcoma; [8]): −; Toxicity (Treatment associated death) (RIF-1 fibrosarcoma; [8]): 0; Summary (cures) % (RIF-1 fibrosarcoma; [9]): 33.33%; Toxicity (Treatment associated death) (RIF-1 fibrosarcoma; [9]): 2; Toxicity (Treatment associated death), number of animals (day) (RIF-1 fibrosarcoma; [9]): 2(1 day); effectiveness of PDT (RIF-1 fibrosarcoma; 4-hour interval between drug administration and light treatment): not effective; effectiveness of PDT (RIF-1 fibrosarcoma; light treatments initiated within 1 hour of drug administration): effective; tumor response to PDT [1]: severe inflammatory response with necrosis of the tumor

Reference: patent publication US6569846B1, “Palladium-substituted bacteriochlorophyll derivatives and use thereof” (Yeda Research and Development Co. Ltd., priority 1998, dated 2003)
